In US20250296971A1, “GASTRIC INHIBITORY PEPTIDE RECEPTOR LIGANDS” (priority 2021, published 2025):
*1 amine or outer side, *2 acyl side, *3 side chain or, on linkers, in order; H or OH if unused. Where a SMILES comes first, the peptide text is derived from it. Bridges are numbered along the chain shown (N, C = ends). [ ]: non-standard residue; d: D form. Trp(5-Cl) = N[C@@H](Cc1c[nH]c2ccc(Cl)cc12)C(=O)O; Phe(3,4-Cl2) = N[C@@H](Cc1ccc(Cl)c(Cl)c1)C(=O)O; Trp(5-OH) = N[C@@H](Cc1c[nH]c2ccc(O)cc12)C(=O)O; Pyridine(2,6-diCH2) = c1cc(C[*:1])nc(C[*:2])c1; Trp(7-F) = N[C@@H](Cc1c[nH]c2c(F)cccc12)C(=O)O; Phe(2,4-Cl2) = N[C@@H](Cc1ccc(Cl)cc1Cl)C(=O)O; X22 = O=C([C@H](Cc1cccc(Cl)c1Cl)N[*:1])[*:2]; Thz(5,5-Me2) = CC1(C)SCN[C@@H]1C(=O)O; Glutaryl = O=C(CCCC(=O)[*:2])[*:1]; Ser(ΨH,HPro) = O=C(O)[C@@H]1COCN1; Hyp = O=C(O)[C@@H]1C[C@@H](O)CN1; NMeE = CN[C@@H](CCC(=O)O)C(=O)O; Thz = O=C(O)[C@@H]1CSCN1; Thp = NC1(C(=O)O)CCOCC1

Biological target: T1, GIPR (CHO-K1-hGIPR cells) (Homo sapiens, UniProt P48546)
T1 construct: host or cells: CHO-K1
T1 sequence (P48546 22-466): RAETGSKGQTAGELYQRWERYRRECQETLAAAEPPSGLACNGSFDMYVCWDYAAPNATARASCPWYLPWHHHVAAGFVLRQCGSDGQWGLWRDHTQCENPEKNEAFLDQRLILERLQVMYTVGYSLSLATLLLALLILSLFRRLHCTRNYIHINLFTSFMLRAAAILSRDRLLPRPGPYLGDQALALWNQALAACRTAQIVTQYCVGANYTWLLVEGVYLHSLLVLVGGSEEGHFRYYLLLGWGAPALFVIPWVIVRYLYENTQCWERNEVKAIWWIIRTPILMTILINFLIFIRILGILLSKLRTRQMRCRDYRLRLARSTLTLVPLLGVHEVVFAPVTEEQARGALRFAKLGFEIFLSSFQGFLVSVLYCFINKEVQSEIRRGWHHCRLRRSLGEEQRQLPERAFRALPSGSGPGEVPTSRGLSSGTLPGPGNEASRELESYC
Assay: FACS binding assay
Conditions: competition with 20 nM GIP-057, 4° C., 1 hour, read-out: pIC50 Category (converted)
Method in brief: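 CHO-K1 cells expressing human GIPR, washed in PBS/1% FCS, then stained with 1 μg/mL APC-streptavidin for 30 min on ice.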

IC50 [nM]	SMILES
< 10	CC[C@H](C)[C@@H]1NC(=O)[C@H](CC(C)C)NC(=O)C2(CCOCC2)NC(=O)[C@@H](NC(=O)[C@@H](CC(C)C)NC(=O)[C@H](CCC(=O)O)NC(=O)[C@@H]2C[C@@H](O)CN2C(=O)[C@H](Cc2c[nH]c3ccc(Cl)cc23)NC(=O)[C@H](Cc2ccc(Cl)cc2Cl)NC(=O)[C@H](CC(=O)O)NC(C)=O)CSCc2cccc(n2)CSC[C@@H](C(N)=O)NC1=O [GIP-212, Ac-Asp-Egm-5Clw-Hyp-Glu-leu-[Cys(2Lut)-Thp-Leu-Ile-Cys]-NH2] (Ac-D[Phe(2,4-Cl2)][Trp(5-Cl)][Hyp]E[dL]C[Thp]LIC-NH2; linker 7-11 via Pyridine(2,6-diCH2))
< 10	CC[C@H](C)[C@@H]1NC(=O)[C@H](CC(C)C)NC(=O)C2(CCOCC2)NC(=O)[C@@H](NC(=O)[C@@H](CC(C)C)NC(=O)[C@H](CCC(=O)O)NC(=O)[C@@H]2C[C@@H](O)CN2C(=O)[C@H](Cc2ccc(Cl)c(Cl)c2)NC(=O)[C@H](Cc2c[nH]c3ccccc23)NC(=O)[C@H](CC(=O)O)NC(C)=O)CSCc2cccc(n2)CSC[C@@H](C(N)=O)NC1=O [GIP-213, Ac-Asp-Trp-Eaa-Hyp-Glu-leu-[Cys(2Lut)-Thp-Leu-Ile-Cys]-NH2] (Ac-DW[Phe(3,4-Cl2)][Hyp]E[dL]C[Thp]LIC-NH2; linker 7-11 via Pyridine(2,6-diCH2))
< 10	CC[C@H](C)[C@@H]1NC(=O)[C@H](CC(C)C)NC(=O)C2(CCOCC2)NC(=O)[C@@H](NC(=O)[C@@H](CC(C)C)NC(=O)[C@H](CCC(=O)O)NC(=O)[C@@H]2C[C@@H](O)CN2C(=O)[C@H](Cc2c[nH]c3ccc(Cl)cc23)NC(=O)[C@H](Cc2c[nH]c3ccccc23)NC(=O)CCCC(=O)O)CSCc2cccc(n2)CSC[C@@H](C(N)=O)NC1=O [GIP-214, HO-Glutar-Trp-5Clw-Hyp-Glu-leu-[Cys(2Lut)-Thp-Leu-Ile-Cys]-NH2] (Glutaryl-W[Trp(5-Cl)][Hyp]E[dL]C[Thp]LIC-NH2; linker 6-10 via Pyridine(2,6-diCH2))
< 10	CC[C@H](C)[C@@H]1NC(=O)[C@H](CC(C)C)NC(=O)C2(CCOCC2)NC(=O)[C@@H](NC(=O)[C@@H](CC(C)C)NC(=O)[C@H](CCC(=O)O)NC(=O)[C@H]2N(C(=O)[C@H](Cc3c[nH]c4ccc(Cl)cc34)NC(=O)[C@H](Cc3c[nH]c4ccccc34)NC(=O)[C@H](CC(=O)O)NC(C)=O)CSC2(C)C)CSCc2cccc(n2)CSC[C@@H](C(N)=O)NC1=O [GIP-215, Ac-Asp-Trp-5Clw-Dtc-Glu-leu-[Cys(2Lut)-Thp-Leu-Ile-Cys]-NH2] (Ac-DW[Trp(5-Cl)][Thz(5,5-Me2)]E[dL]C[Thp]LIC-NH2; linker 7-11 via Pyridine(2,6-diCH2))
< 10	CC[C@H](C)[C@@H]1NC(=O)[C@H](CC(C)C)NC(=O)C2(CCOCC2)NC(=O)[C@@H](NC(=O)[C@@H](CC(C)C)NC(=O)[C@H](CCC(=O)O)NC(=O)[C@@H]2COCN2C(=O)[C@H](Cc2c[nH]c3ccc(Cl)cc23)NC(=O)[C@H](Cc2c[nH]c3ccccc23)NC(=O)[C@H](CC(=O)O)NC(C)=O)CSCc2cccc(n2)CSC[C@@H](C(N)=O)NC1=O [GIP-216, Ac-Asp-Trp-5Clw-Oxa-Glu-leu-[Cys(2Lut)-Thp-Leu-Ile-Cys]-NH2] (Ac-DW[Trp(5-Cl)][Ser(ΨH,HPro)]E[dL]C[Thp]LIC-NH2; linker 7-11 via Pyridine(2,6-diCH2))
< 10	CC[C@H](C)[C@@H]1NC(=O)[C@H](CC(C)C)NC(=O)C2(CCOCC2)NC(=O)[C@@H](NC(=O)[C@H](CC(C)C)NC(=O)[C@H](CCC(=O)O)N(C)C(=O)[C@@H]2C[C@@H](O)CN2C(=O)[C@H](Cc2c[nH]c3ccc(Cl)cc23)NC(=O)[C@H](Cc2c[nH]c3ccccc23)NC(=O)[C@H](CC(=O)O)NC(C)=O)CSCc2cccc(n2)CSC[C@@H](C(N)=O)NC1=O [GIP-217, Ac-Asp-Trp-5Clw-Hyp-Nme-Leu-[Cys(2Lut)-Thp-Leu-Ile-Cys]-NH2] (Ac-DW[Trp(5-Cl)][Hyp][NMeE]LC[Thp]LIC-NH2; linker 7-11 via Pyridine(2,6-diCH2))
< 10	CC[C@H](C)[C@@H]1NC(=O)[C@H](CC(C)C)NC(=O)C2(CCOCC2)NC(=O)[C@@H](NC(=O)[C@@H](NC(=O)[C@H](CCC(=O)O)NC(=O)[C@@H]2C[C@@H](O)CN2C(=O)[C@H](Cc2c[nH]c3ccc(Cl)cc23)NC(=O)[C@H](Cc2c[nH]c3ccccc23)NC(=O)[C@H](CC(=O)O)NC(C)=O)[C@@H](C)CC)CSCc2cccc(n2)CSC[C@@H](C(N)=O)NC1=O [GIP-218, Ac-Asp-Trp-5Clw-Hyp-Glu-Ile-[Cys(2Lut)-Thp-Leu-Ile-Cys]-NH2] (Ac-DW[Trp(5-Cl)][Hyp]EIC[Thp]LIC-NH2; linker 7-11 via Pyridine(2,6-diCH2))
< 10	CC[C@H](C)[C@@H]1NC(=O)[C@H](CC(C)C)NC(=O)C2(CCOCC2)NC(=O)[C@@H](NC(=O)[C@@H](NC(=O)[C@H](CCC(=O)O)NC(=O)[C@@H]2C[C@@H](O)CN2C(=O)[C@H](Cc2c[nH]c3ccc(Cl)cc23)NC(=O)[C@H](Cc2c[nH]c3ccccc23)NC(=O)[C@H](CC(=O)O)NC(C)=O)C(C)C)CSCc2cccc(n2)CSC[C@@H](C(N)=O)NC1=O [GIP-219, Ac-Asp-Trp-5Clw-Hyp-Glu-Val-[Cys(2Lut)-Thp-Leu-Ile-Cys]-NH2] (Ac-DW[Trp(5-Cl)][Hyp]EVC[Thp]LIC-NH2; linker 7-11 via Pyridine(2,6-diCH2))
< 10	CC[C@H](C)[C@@H]1NC(=O)[C@H](CC(C)C)NC(=O)C2(CCOCC2)NC(=O)[C@@H](NC(=O)[C@@H](CC(C)C)NC(=O)[C@H](CCC(=O)O)NC(=O)[C@@H]2C[C@@H](O)CN2C(=O)[C@H](Cc2c[nH]c3ccc(Cl)cc23)NC(=O)[C@H](Cc2c[nH]c3ccc(O)cc23)NC(=O)[C@H](CC(=O)O)NC(C)=O)CSCc2cccc(n2)CSC[C@@H](C(N)=O)NC1=O [GIP-220, Ac-Asp-Hyw-5Clw-Hyp-Glu-leu-[Cys(2Lut)-Thp-Leu-Ile-Cys]-NH2] (Ac-D[Trp(5-OH)][Trp(5-Cl)][Hyp]E[dL]C[Thp]LIC-NH2; linker 7-11 via Pyridine(2,6-diCH2))
< 10	CC[C@H](C)[C@@H]1NC(=O)[C@H](CC(C)C)NC(=O)C2(CCOCC2)NC(=O)[C@@H](NC(=O)[C@@H](CC(C)C)NC(=O)[C@H](CCC(=O)O)NC(=O)[C@@H]2C[C@@H](O)CN2C(=O)[C@H](Cc2c[nH]c3ccc(Cl)cc23)NC(=O)[C@H](Cc2c[nH]c3c(F)cccc23)NC(=O)[C@H](CC(=O)O)NC(C)=O)CSCc2cccc(n2)CSC[C@@H](C(N)=O)NC1=O [GIP-221, Ac-Asp-7Fw-5Clw-Hyp-Glu-leu-[Cys(2Lut)-Thp-Leu-Ile-Cys]-NH2] (Ac-D[Trp(7-F)][Trp(5-Cl)][Hyp]E[dL]C[Thp]LIC-NH2; linker 7-11 via Pyridine(2,6-diCH2))
< 10	CC[C@H](C)[C@@H]1NC(=O)[C@H](CC(C)C)NC(=O)C2(CCOCC2)NC(=O)[C@@H](NC(=O)[C@@H](CC(C)C)NC(=O)[C@H](CCC(=O)O)NC(=O)[C@@H]2CSCN2C(=O)[C@H](Cc2c[nH]c3ccc(Cl)cc23)NC(=O)[C@H](Cc2c[nH]c3ccccc23)NC(=O)[C@H](CC(=O)O)NC(C)=O)CSCc2cccc(n2)CSC[C@@H](C(N)=O)NC1=O [GIP-222, Ac-Asp-Trp-5Clw-Eaz-Glu-leu-[Cys(2Lut)-Thp-Leu-Ile-Cys]-NH2] (Ac-DW[Trp(5-Cl)][Thz]E[dL]C[Thp]LIC-NH2; linker 7-11 via Pyridine(2,6-diCH2))
< 10	CC[C@H](C)[C@@H]1NC(=O)[C@H](CC(C)C)NC(=O)C2(CCOCC2)NC(=O)[C@@H](NC(=O)[C@H](CC(C)C)NC(=O)[C@@H](CCC(=O)O)NC(=O)[C@@H]2C[C@@H](O)CN2C(=O)[C@H](Cc2c[nH]c3ccc(Cl)cc23)NC(=O)[C@H](Cc2c[nH]c3ccccc23)NC(=O)[C@H](CC(=O)O)NC(C)=O)CSCc2cccc(n2)CSC[C@@H](C(N)=O)NC1=O [GIP-223, Ac-Asp-Trp-5Clw-Eaz-Glu-leu-[Cys(2Lut)-Thp-Leu-Ile-Cys]-NH2] (Ac-DW[Trp(5-Cl)][Hyp][dE]LC[Thp]LIC-NH2; linker 7-11 via Pyridine(2,6-diCH2))
< 10	CC[C@H](C)[C@@H]1NC(=O)[C@H](CC(C)C)NC(=O)C2(CCOCC2)NC(=O)[C@@H](NC(=O)[C@@H](CC(C)C)NC(=O)[C@H](CCC(=O)O)NC(=O)[C@@H]2C[C@@H](O)CN2C(=O)[C@H](Cc2c[nH]c3ccc(Cl)cc23)NC(=O)[C@H](Cc2ccccc2)NC(=O)[C@H](CC(=O)O)NC(C)=O)CSCc2cccc(n2)CSC[C@@H](C(N)=O)NC1=O [GIP-224, Ac-Asp-Phe-5Clw-Hyp-Glu-leu-[Cys(2Lut)-Thp-Leu-Ile-Cys]-NH2] (Ac-DF[Trp(5-Cl)][Hyp]E[dL]C[Thp]LIC-NH2; linker 7-11 via Pyridine(2,6-diCH2))
< 10	CC[C@H](C)[C@@H]1NC(=O)[C@H](CC(C)C)NC(=O)C2(CCOCC2)NC(=O)[C@@H](NC(=O)[C@@H](CC(C)C)NC(=O)[C@H](CCC(=O)O)NC(=O)[C@@H]2C[C@@H](O)CN2C(=O)[C@H](Cc2c[nH]c3ccc(Cl)cc23)NC(=O)[C@H](Cc2cccc(Cl)c2Cl)NC(=O)[C@H](CC(=O)O)NC(C)=O)CSCc2cccc(n2)CSC[C@@H](C(N)=O)NC1=O [GIP-226, Ac-Asp-Egp-5Clw-Hyp-Glu-leu-[Cys(2Lut)-Thp-Leu-Ile-Cys]-NH2] (Ac-D[X22][Trp(5-Cl)][Hyp]E[dL]C[Thp]LIC-NH2; linker 7-11 via Pyridine(2,6-diCH2))
